This assay deals with JAK1 (Homo sapiens (Human), UniProt P23458). In words: Analysis of JAK1 activity inhibition ability (ADP-Glo Kinase Assay). The class given is biochemical. To be noted: JAK1 enzyme, ADP-Glo luminescence, ATP 250 uM, IRS-itide substrate, 30° C. 40 minutes; read-out: IC50. Put shortly: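 ADP-Glo luminescence read-out of ADP production, with IC50 taken as the concentration halving JAK1 activity relative to control. Enzyme was incubated 40 min at 30 °C with compound, IRS-itide (40 ng/mL) and ATP (250 uM), concentrations as prepared in pH 7.5 Tris-HCl/MgCl2/BSA/DTT buffer.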
(In general: ADP-Glo first removes unused ATP, then detects ADP through luciferase.)

One may read the IC50 as the concentration that gives 50% inhibition.

JAK1, sequence (P23458 whole entry): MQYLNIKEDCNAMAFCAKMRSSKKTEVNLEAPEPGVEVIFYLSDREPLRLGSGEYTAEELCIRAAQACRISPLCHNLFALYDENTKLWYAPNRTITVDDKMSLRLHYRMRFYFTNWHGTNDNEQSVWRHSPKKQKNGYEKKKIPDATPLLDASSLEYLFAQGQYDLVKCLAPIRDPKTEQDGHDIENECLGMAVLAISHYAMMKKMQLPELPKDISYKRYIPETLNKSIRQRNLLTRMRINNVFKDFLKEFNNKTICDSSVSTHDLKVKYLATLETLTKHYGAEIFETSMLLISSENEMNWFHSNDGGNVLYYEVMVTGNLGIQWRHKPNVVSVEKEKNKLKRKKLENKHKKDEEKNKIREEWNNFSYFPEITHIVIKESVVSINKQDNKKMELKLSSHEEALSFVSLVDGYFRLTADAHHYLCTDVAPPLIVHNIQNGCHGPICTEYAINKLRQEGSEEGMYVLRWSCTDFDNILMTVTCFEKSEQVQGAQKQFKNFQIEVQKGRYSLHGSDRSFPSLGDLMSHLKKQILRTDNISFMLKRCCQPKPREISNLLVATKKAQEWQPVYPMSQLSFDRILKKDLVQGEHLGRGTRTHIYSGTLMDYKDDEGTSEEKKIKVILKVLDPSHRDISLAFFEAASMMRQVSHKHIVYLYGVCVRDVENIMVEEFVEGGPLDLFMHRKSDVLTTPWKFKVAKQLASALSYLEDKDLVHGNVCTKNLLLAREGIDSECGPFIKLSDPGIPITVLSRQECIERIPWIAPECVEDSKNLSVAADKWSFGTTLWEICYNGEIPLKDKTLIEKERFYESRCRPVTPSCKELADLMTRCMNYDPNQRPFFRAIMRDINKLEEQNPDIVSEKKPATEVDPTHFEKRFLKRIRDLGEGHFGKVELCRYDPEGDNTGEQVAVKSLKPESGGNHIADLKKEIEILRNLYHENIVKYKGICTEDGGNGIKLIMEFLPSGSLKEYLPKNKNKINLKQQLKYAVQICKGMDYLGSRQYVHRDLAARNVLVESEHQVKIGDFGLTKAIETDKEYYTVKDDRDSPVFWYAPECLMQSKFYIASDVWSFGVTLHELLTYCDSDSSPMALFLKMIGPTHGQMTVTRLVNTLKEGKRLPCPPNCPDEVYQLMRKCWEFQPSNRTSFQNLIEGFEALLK

Turning to `CC1CN(C(=O)c2cncc(Br)c2)CC=C1c1cc(NC(=O)C2CC2)nc2[nH]ccc12` (stereo not drawn) [Example 324, N-(4-(1-(5-bromonicotinoyl)-3-methyl-1,2,3,6-tetrahydropyridin-4-yl)-1H-pyrrolo[2,3-b]pyridin-6-yl)cyclopropanecarboxamide], the IC50 fell in the range of 20 to 200 nM.
As for `CC1CN(C(=O)c2ccc3c(c2)OCCO3)CC=C1c1cc(NC(=O)C2CC2)nc2[nH]ccc12` (stereo not drawn) [Example 325, N-(4-(1-(2,3-dihydrobenzo[b][1,4]dioxine-6-carbonyl)-3-methyl-1,2,3,6-tetrahydropyridin-4-yl)-1H-pyrrolo[2,3-b]pyridin-6-yl)cyclopropanecarboxamide], the figure is 20 to 200 nM.
As for `CC1CN(C(=O)c2ccc3c(c2)OCO3)CC=C1c1cc(NC(=O)C2CC2)nc2[nH]ccc12` (stereo not drawn) [Example 326, N-(4-(1-(benzo[d][1,3]dioxole-5-carbonyl)-3-methyl-1,2,3,6-tetrahydropyridin-4-yl)-1H-pyrrolo[2,3-b]pyridin-6-yl)cyclopropanecarboxamide], the figure is 20 to 200 nM; as for `CC1CN(C(=O)c2ccc3cc[nH]c3c2)CC=C1c1cc(NC(=O)C2CC2)nc2[nH]ccc12` (stereo not drawn) [Example 327, N-(4-(1-(1H-indole-6-carbonyl)-3-methyl-1,2,3,6-tetrahydropyridin-4-yl)-1H-pyrrolo[2,3-b]pyridin-6-yl)cyclopropanecarboxamide], 20 to 200 nM; as for `CC1CN(C(=O)c2ccnc3[nH]ccc23)CC=C1c1cc(NC(=O)C2CC2)nc2[nH]ccc12` (stereo not drawn) [Example 328, N-(4-(3-methyl-1-(1H-pyrrolo[2,3-b]pyridine-4-carbonyl)-1,2,3,6-tetrahydropyridin-4-yl)-1H-pyrrolo[2,3-b]pyridin-6-yl)cyclopropanecarboxamide], 20 to 200 nM.
Take `COc1ccc(C(=O)N2CC=C(c3cc(NC(=O)C4CC4)nc4[nH]ccc34)C(C)C2)cc1OC` (stereo not drawn) [Example 329, N-(4-(1-(3,4-dimethoxybenzoyl)-3-methyl-1,2,3,6-tetrahydropyridin-4-yl)-1H-pyrrolo[2,3-b]pyridin-6-yl)cyclopropanecarboxamide]: the IC50 lay in the range of 20 to 200 nM.
As for `COc1cccc(C(=O)N2CC=C(c3cc(NC(=O)C4CC4)nc4[nH]ccc34)C(C)C2)c1` (stereo not drawn) [Example 330, N-(4-(1-(3-methoxybenzoyl)-3-methyl-1,2,3,6-tetrahydropyridin-4-yl)-1H-pyrrolo[2,3-b]pyridin-6-yl)cyclopropanecarboxamide], the figure is 20 to 200 nM; as for `CC1CN(C(=O)c2ccc([N+](=O)[O-])cc2)CC=C1c1cc(NC(=O)C2CC2)nc2[nH]ccc12` (stereo not drawn) [Example 331, N-(4-(3-methyl-1-(4-nitrobenzoyl)-1,2,3,6-tetrahydropyridin-4-yl)-1H-pyrrolo[2,3-b]pyridin-6-yl)cyclopropanecarboxamide], 20 to 200 nM.
For the molecule `CC(=O)c1cccc(C(=O)N2CC=C(c3cc(NC(=O)C4CC4)nc4[nH]ccc34)C(C)C2)c1` (stereo not drawn) [Example 332, N-(4-(1-(3-acetylbenzoyl)-3-methyl-1,2,3,6-tetrahydropyridin-4-yl)-1H-pyrrolo[2,3-b]pyridin-6-yl)cyclopropanecarboxamide], the IC50 was greater than 200 nM.
In the case of `CC1CN(C(=O)c2ccc(Cl)cc2)CC=C1c1cc(NC(=O)C2CC2)nc2[nH]ccc12` (stereo not drawn) [Example 333, N-(4-(1-(4-chlorobenzoyl)-3-methyl-1,2,3,6-tetrahydropyridin-4-yl)-1H-pyrrolo[2,3-b]pyridin-6-yl)cyclopropanecarboxamide], the IC50 was in the range of 20 to 200 nM.
As for `CC1CN(C(=O)c2cccc(Br)c2)CC=C1c1cc(NC(=O)C2CC2)nc2[nH]ccc12` (stereo not drawn) [Example 334, N-(4-(1-(3-bromobenzoyl)-3-methyl-1,2,3,6-tetrahydropyridin-4-yl)-1H-pyrrolo[2,3-b]pyridin-6-yl)cyclopropanecarboxamide], the figure is 20 to 200 nM.
As to `CC1CN(C(=O)c2ccc(Cl)nc2)CC=C1c1cc(NC(=O)C2CC2)nc2[nH]ccc12` (stereo not drawn) [Example 335, N-(4-(1-(6-chloronicotinoyl)-3-methyl-1,2,3,6-tetrahydropyridin-4-yl)-1H-pyrrolo[2,3-b]pyridin-6-yl)cyclopropanecarboxamide], the IC50 lay within 20 to 200 nM.
On to `CC1CN(C(=O)c2ccncc2)CC=C1c1cc(NC(=O)C2CC2)nc2[nH]ccc12` (stereo not drawn) [Example 336, N-(4-(1-isonicotinoyl-3-methyl-1,2,3,6-tetrahydropyridin-4-yl)-1H-pyrrolo[2,3-b]pyridin-6-yl)cyclopropanecarboxamide], for which the IC50 was 20 to 200 nM.
As for `CC1CN(C(=O)c2cccc(Br)n2)CC=C1c1cc(NC(=O)C2CC2)nc2[nH]ccc12` (stereo not drawn) [Example 337, N-(4-(1-(6-bromopicolinoyl)-3-methyl-1,2,3,6-tetrahydropyridin-4-yl)-1H-pyrrolo[2,3-b]pyridin-6-yl)cyclopropanecarboxamide], the figure is 20 to 200 nM; as for `CC(Br)CC(=O)N1CC=C(c2cc(NC(=O)C3CC3)nc3[nH]ccc23)C(C)C1` (stereo not drawn) [Example 338, N-(4-(1-(3-bromobutanoyl)-3-methyl-1,2,3,6-tetrahydropyridin-4-yl)-1H-pyrrolo[2,3-b]pyridin-6-yl)cyclopropanecarboxamide], 20 to 200 nM.
With `CC1CN(C(=O)/C=C/CCBr)CC=C1c1cc(NC(=O)C2CC2)nc2[nH]ccc12` (stereo not drawn) [Example 339, (E)-N-(4-(1-(5-bromopent-2-enoyl)-3-methyl-1,2,3,6-tetrahydropyridin-4-yl)-1H-pyrrolo[2,3-b]pyridin-6-yl)cyclopropanecarboxamide], the IC50 is 20 to 200 nM.
The same measure for `CC1CN(C(=O)CC2CCCC2)CC=C1c1cc(NC(=O)C2CC2)nc2[nH]ccc12` (stereo not drawn) [Example 340, N-(4-(1-(2-cyclopentylacetyl)-3-methyl-1,2,3,6-tetrahydropyridin-4-yl)-1H-pyrrolo[2,3-b]pyridin-6-yl)cyclopropanecarboxamide]: 20 to 200 nM; for `COc1ccc(CC(=O)N2CC=C(c3cc(NC(=O)C4CC4)nc4[nH]ccc34)C(C)C2)cc1` (stereo not drawn) [Example 341, N-(4-(1-(2-(4-methoxyphenyl)acetyl)-3-methyl-1,2,3,6-tetrahydropyridin-4-yl)-1H-pyrrolo[2,3-b]pyridin-6-yl)cyclopropanecarboxamide]: greater than 200 nM; for `Cc1ccsc1C(=O)N1CC=C(c2cc(NC(=O)C3CC3)nc3[nH]ccc23)C(C)C1` (stereo not drawn) [Example 342, N-(4-(3-methyl-1-(3-methylthiophene-2-carbonyl)-1,2,3,6-tetrahydropyridin-4-yl)-1H-pyrrolo[2,3-b]pyridin-6-yl)cyclopropanecarboxamide]: 20 to 200 nM.
As for `CC1CN(C(=O)c2cnccn2)CC=C1c1cc(NC(=O)C2CC2)nc2[nH]ccc12` (stereo not drawn) [Example 343, N-(4-(3-methyl-1-(pyrazine-2-carbonyl)-1,2,3,6-tetrahydropyridin-4-yl)-1H-pyrrolo[2,3-b]pyridin-6-yl)cyclopropanecarboxamide], the IC50 lay in the range of 20 to 200 nM.
`Cc1cnc(C(=O)N2CC=C(c3cc(NC(=O)C4CC4)nc4[nH]ccc34)C(C)C2)cn1` (stereo not drawn) [Example 344, N-(4-(3-methyl-1-(5-methylpyrazine-2-carbonyl)-1,2,3,6-tetrahydropyridin-4-yl)-1H-pyrrolo[2,3-b]pyridin-6-yl)cyclopropanecarboxamide]: the IC50 was greater than 200 nM.

The values are drawn from patent publication US11524968B2, “Heterocyclic compound as a protein kinase inhibitor” (HK inno.N Corporation, priority 2017, dated 2022).
